Reference: US11419827B2, “Protecting tissue and mitigating injury from radiation-induced ionizing events” (Humanetics Corporation, priority 2017, dated 2022)
Entries after “also recorded” stand apart in the source; their conditions may differ.

What was measured:
[1] = test system: CXCL1 cytokine, G-CSF, TNFα; experiment: Multi-cytokine LUMINEX panel on peripheral blood of mice exposed to 6 Gy high LET proton radiation; assay type: in vivo; conditions: 200 mg/kg s.c. 24 hours before 6 Gy high LET proton radiation; blood taken 3, 6 and 12 days after exposure
Method: FIGS. 4A, 4B, and 4C are graphs plotting the levels of CXCL1 cytokine (FIG. 4A), granulocyte colony stimulating factor (G-CSF; FIG. 4B), and tumor necrosis factor alpha (TNFα; FIG. 4C) in blood from mice injected with 200 mg/kg genistein (s.c.) 24 hours prior to exposure to 6 Gy high LET proton radiation. In these experiments, blood was drawn from mice on the indicated days following radiation exposure, and the levels of cytokines were assayed.
(§1) Mice were prophylactically administered genistein (200 mg/kg) via s.c. injection 24 hours prior to radiation exposure. Appropriate sham radiation and vehicle controls were applied. Radiation exposures of 6 Gy with high-LET protons [50 MeV fully modulated spread-out Bragg peak (SOBP)] were utilized. The following parameters were examined:
Cytokine response—Peripheral blood was taken from the treated and irradiated mice 3, 6, and 12 days after radiation exposure, and assessed using a multi-cytokine LUMINEX® panel to evaluate the global inflammatory cytokine response.

[2] = test system: Human cardiomyocytes; experiment: Live cell counts of human cardiomyocytes after mixed field (32% neutron, 68% gamma) radiation; assay type: cell-based; conditions: treated 24 hours before exposure to various doses of MF radiation; counts 3 days after exposure
Method: FIG. 5 is a graph plotting the number of live human cardiomyocytes after treatment of the cells with genistein 24 hours before exposure to various doses of mixed field (32% neutron, 68% gamma) radiation (henceforth referred to as “MF” radiation). Live cell counts were performed 3 days after radiation exposure.
Human cardiomyocytes were treated with genistein 24 hours before exposure to various doses of mixed field (“MF,” 32% neutron, 68% gamma) radiation. Live cell counts were performed 3 days after radiation exposure.

[3] = test system: p53 and γH2AX; experiment: Western blot for DNA damage markers p53 and γH2AX in heart and lung tissue of mice exposed to 6 Gy high LET proton radiation; assay type: in vivo; conditions: 200 mg/kg s.c. 24 hours before 6 Gy high LET proton radiation, tissues harvested 3 days later, vs tubulin control
Method: FIG. 2 is a western blot with heart and lung tissue extracted from animals that were treated with or without genistein [200 mg/kg subcutaneously (s.c.)] and then exposed to 6 Gy high LET proton radiation 24 hours after treatment. The indicated tissues were harvested 3 days later. The levels of p53 (a DNA damage response protein) and γH2AX (a direct measurement of DNA damage) were measured and compared to a tubulin control.
as §1
DNA damage in tissues—Lungs and heart were surgically removed and subjected to thin-slice sectioning, followed by western blot analysis for the DNA damage markers p53 and γH2AX (an effective measure of proton radiation-induced biological damage; see, Liu et al., Radiation Oncology 91(5):1081-1089, 2015), as well as tubulin control.

[4] = in several pharmaceutically acceptable solvents; cited from earlier work

With `O=c1c(-c2ccc(O)cc2)coc2cc(O)cc(O)c12` [genistein, 5,7-dihydroxy-3-(4-hydroxyphenyl)-chromen-4-one] the “expression of CXCL1 cytokine in blood” value [1] was “mitigated the effects of proton radiation”, the “expression of G-CSF in blood” value [1] was “mitigated the effects of proton radiation” and the “expression of TNFα in blood” value [1] was “mitigated the effects of proton radiation”. The “survival (live cell counts) after MF radiation” value [2] was “increased survival”, the “p53 levels in response to radiation exposure” value [3] was “prevented a marked increase in p53 levels” and the “p53 levels in response to radiation exposure” value ([3]; listed as Genistein) was “ameliorated the effects of proton radiation”. For the same compound, the γH2AX levels ([3]; listed as Genistein) was “lower levels of γH2AX; also recorded: ameliorated the effects of proton radiation” and the solubility [4] was “low to virtually no solubility”.
